In ChEMBL document CHEMBL5678802, “Small-molecule p21-activated kinase inhibitor PF-3758309 is a potent inhibitor of oncogenic signaling and tumor growth” (Proc Natl Acad Sci U S A, 2010):
The source made the active and inactive calls. No cut-off for these calls is given here.

Key:
[1] = test system: HCT-116; experiment: Effect on phosphorylated GEF-H1 level in human HCT-116 cells at 1 uM incubated for 15 mins by Western blot analysis; assay type: functional, cell-based
[2] = test system: HCT-116; experiment: Effect on phosphorylated PAK4 level in human HCT-116 cells at 1 uM incubated for 15 mins by Western blot analysis; assay type: functional, cell-based
[3] = molecular target: T1, Serine/threonine-protein kinase PAK 4 (Homo sapiens, UniProt O96013); experiment: Inhibition of PAK4 Kinase domain (291 to 591 residues) (unknown origin) transfected in TR-293-KDG cells using GEFH1 as substrate assessed as inhibition of PAK4-dependent phosphorylation of GEFH1 at S810 residue incubated for 3 hrs by ELISA; assay type: cell-based
[4] = molecular target: T1, Serine/threonine-protein kinase PAK 4; experiment: Inhibition of N-terminal 6His-tagged human recombinant PAK4 kinase domain (300 to 591 residues) using EVPRRKSLVGTPYWM peptide as substrate assessed as inhibition constant in presence of ATP by biochemical assay

T1 sequence (O96013 whole entry, the tested form may be a part): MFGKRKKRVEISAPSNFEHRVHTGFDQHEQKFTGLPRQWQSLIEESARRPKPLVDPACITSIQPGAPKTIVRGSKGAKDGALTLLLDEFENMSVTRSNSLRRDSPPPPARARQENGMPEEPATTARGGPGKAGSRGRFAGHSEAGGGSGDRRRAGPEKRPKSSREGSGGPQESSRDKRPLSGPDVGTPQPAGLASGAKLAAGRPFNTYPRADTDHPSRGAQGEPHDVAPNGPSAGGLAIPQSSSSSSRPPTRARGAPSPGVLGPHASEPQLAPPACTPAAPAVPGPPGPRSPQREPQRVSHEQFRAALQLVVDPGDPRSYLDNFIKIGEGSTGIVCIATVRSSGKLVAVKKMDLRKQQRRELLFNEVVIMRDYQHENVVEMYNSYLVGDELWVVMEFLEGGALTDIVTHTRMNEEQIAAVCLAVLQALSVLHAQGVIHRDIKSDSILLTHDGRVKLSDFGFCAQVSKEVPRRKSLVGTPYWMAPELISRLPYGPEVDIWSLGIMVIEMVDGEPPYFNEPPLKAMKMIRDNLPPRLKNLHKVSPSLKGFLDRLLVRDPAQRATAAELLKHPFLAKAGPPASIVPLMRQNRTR

SMILES	Activity [1]	inhibition [2]	IC50 [3] [µM]	Ki [4] [µM]
COc1ccc(C2=NC(c3ccc(Cl)cc3)C(c3ccc(Cl)cc3)N2C(=O)N2CCNC(=O)C2)c(OC(C)C)c1 (centres undefined)	inactive	inactive		
C[C@@H]1CN(C(=O)N2Cc3c(NC(=O)c4ccccn4)n[nH]c3C2(C)C)[C@@H](C)CN1CC1CCOCC1			10	52
